The assay addresses T1, human RGS14 RGS-box (wild-type) (Homo sapiens, UniProt O43566).
T1 construct: human RGS14 RGS-box (aa 46–195 of UniProt O43566); host or cells: E. coli
T1 sequence (O43566 46-195): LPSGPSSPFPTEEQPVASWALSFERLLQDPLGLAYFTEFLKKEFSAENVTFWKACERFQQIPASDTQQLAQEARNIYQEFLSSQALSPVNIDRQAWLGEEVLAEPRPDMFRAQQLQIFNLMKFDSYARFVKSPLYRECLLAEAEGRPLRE
Nature of the assay: Transcreener GDP RGScreen fluorescence polarization assay of RGS14 RGS-box GAP activity on Gαi1(DM). The format is biochemical. The note with it: wild-type RGS14 RGS-box GAP activity, Gαi1(DM), Transcreener GDP RGScreen; read-out: RGS14 pIC50 (converted). The text has this: We previously described work with BellBrook Labs creating the Transcreener GDP RGScreen fluorescence polarization assay of steady-state GTP hydrolysis, leveraging a double point-mutant in the Gα enzyme to make GTP hydrolysis, rather than GDP (product) release, the rate-limiting step for multiple rounds of GTP conversion ([57], [59]). […] Titrating inputs of the double point-mutant (“DM”) Gαi1 and RGS-box recombinant proteins (Fig. S2, B and C) established a robust, medium-throughput assay for evaluating potential RGS14 and RGS12 inhibitors, with “assay quality” Z′ scores ([60]) above 0.76 for each target (Fig. S2D).
Reagents and protocols for the fluorescence anisotropy-based Transcreener GDP RGScreen assay using a rate-altered, double point-mutant, recombinant Gαi1 protein have been extensively described previously ([43], [44]); reactions were always performed so that total GTP converted over the time course was consistently less than 10% of reaction maximum input. Specific methods for its application in assessing RGS14 and RGS12 GAP activity are summarized as follows. Open-reading frames (ORFs) encoding wild-type versions of the human RGS14 RGS-box (aa 46–195 of UniProt O43566) and human RGS12 RGS-box (aa 695–843 of UniProt O14924) were each sub-cloned in-frame with an N-terminal hexahistidine (His6) expression tag in the plasmid pET30a, expressed in E. coli cultures, and then purified by nickel-nitriloacetate (Ni-NTA) and size-exclusion (Superdex 200) column chromatographies by GenScript using previously described methods ([35]). These recombinant His6-tag fusion proteins were stored at −80 °C in storage buffer (150 mM NaCl, 50 mM Tris-HCl pH 8.0, 10% glycerol) before thawing and use. Cysteine-less versions were similarly produced by ORF site-directed mutagenesis: for RGS14, codons for cysteine residues 47 and 130 (numbered as in PDB id 2JNU) were replaced with serine codons; for RGS12, codons for cysteines 4, 51, 78, and 134 (numbered in relation to PDB id 2EBZ) were replaced with serine codons. Use of Transcreener GDP-detection reagents to assess compound inhibition of Naegleria fowleri Gα7 protein GTPase activity ([83]) has previously been described ([84]).

Take `CCn1c(SC(C)C(=O)c2cc(C)ccc2C)nc2cc(S(N)(=O)=O)ccc21` (centres unmarked) [Z51418807]: the IC50 is above 1 mM. The value for `COc1ccc2nc(SC(C)C(=O)c3ccc(NC(C)=O)cc3)[nH]c2c1` (centres unmarked) [Z16077185] was above 1 mM; that for `COc1ccc2nc(SC(C)C(=O)c3ccc(F)cc3)[nH]c2c1` (centres unmarked) [Z16077798] was above 1 mM; that for `CCC(Sc1nc2ccc(OC)cc2[nH]1)C(=O)c1ccccc1` (centres unmarked) [Z447938100] was above 1 mM. The value for `CCn1c(SC(C)C(=O)c2ccc(F)cc2)nc2cc(S(N)(=O)=O)ccc21` (centres unmarked) [Z51419107] was above 1 mM; that for `COc1ccc2[nH]c(SCC(=O)c3ccc(O)c(O)c3)nc2c1` [Z223822242] was above 1 mM. The value for `CC(Sc1nc2ccccc2n1C)C(=O)c1ccc(NS(C)(=O)=O)cc1` (centres unmarked) [Z50932699] was above 1 mM; that for `COc1ccc2nc(SCC(O)c3ccccc3)[nH]c2c1` (centres unmarked) [Z56784116] was above 1 mM. On to `COCCn1c(SC(C)C(=O)c2ccc(OC)cc2)nc2ccccc21` (centres unmarked) [Z16216221], for which the IC50 was above 1 mM. As for `COc1ccc2nc(SC(C)C(=O)c3ccc(F)c(F)c3)[nH]c2c1` (centres unmarked) [Z16077536], the figure is above 1 mM. In the case of `COc1ccc2nc(SCC(=O)c3ccc(F)cc3)[nH]c2c1` [Z16077977], the IC50 was above 1 mM.

Turning to `CCC(Sc1nc2ccc(OC)cc2[nH]1)C(=O)c1ccc(NC(C)=O)cc1` (centres unmarked) [Z1340653159], the IC50 was above 1 mM. `COc1ccc(C(=O)C(C)Sc2nc3cc(C)ccc3[nH]2)cc1Cl` (centres unmarked) [Z5032180749]: the IC50 is above 1 mM.

Turning to `COc1ccc2nc(SC(C)C(=O)c3ccc(OC(F)F)cc3)[nH]c2c1` (centres unmarked) [Z16077231], the IC50 is above 1 mM.

`COc1ccc2nc(SCCOCC3CCCO3)[nH]c2c1` (centres unmarked) [Z1258859165]: the IC50 was above 1 mM. On to `COc1ccc2nc(SC(C)C(=O)Nc3ccc(F)cc3F)[nH]c2c1` (centres unmarked) [Z112468618], for which the IC50 is above 1 mM.

`COc1ccc(-n2c(SC(C)C(=O)c3cc(C)ccc3C)nc3ccccc32)cc1` (centres unmarked) [Z19576483]: the IC50 was above 1 mM. As for `CCn1c(SC(C)C(=O)c2ccccc2)nc2cc(S(=O)(=O)N3CCOCC3)ccc21` (centres unmarked) [Z16669878], the figure is above 1 mM; as for `CCOc1ccc(C(=O)C(C)Sc2nc3ccccc3n2C)cc1` (centres unmarked) [Z15479255], above 1 mM. As for `CCn1c(SC(C)C(=O)c2ccc(Cl)cc2)nc2cc(S(N)(=O)=O)ccc21` (centres unmarked) [Z51418567], the figure is above 1 mM; as for `Cc1ccc2[nH]c(SC(C)C(=O)c3ccc(F)cc3)nc2c1` (centres unmarked) [Z18443583], above 1 mM. As for `COc1ccc2nc(SC(C)C(=O)c3ccc(C)c(C)c3)[nH]c2c1` (centres unmarked) [Z16077488], the figure is above 1 mM; as for `CCOc1ccc2nc(SCC(=O)c3ccc(CC)cc3)[nH]c2c1` [Z55030990], above 1 mM; as for `COc1ccc2nc(SC(C)C(=O)c3ccc(NC(=O)C(C)C)cc3)[nH]c2c1` (centres unmarked) [Z65841956], above 1 mM. Take `CCCCn1c(SC(C(=O)c2ccc(OC)cc2)c2ccc(OC)cc2)nc2cc(S(N)(=O)=O)ccc21` (centres unmarked) [Z19162246]: the IC50 is above 1 mM. As for `CCn1c(SC(C)C(=O)c2ccc(OC)cc2)nc2cc(S(N)(=O)=O)ccc21` (centres unmarked) [Z51419018], the figure is above 1 mM; as for `CC(=O)N1CCc2cc(C(=O)C(C)Sc3nc4cc(C)ccc4[nH]3)ccc21` (centres unmarked) [Z165332254], above 1 mM. The value for `COc1ccc2nc(SC(C)C(=O)c3cccc(Cl)c3)[nH]c2c1` (centres unmarked) [Z16077229] was above 1 mM; that for `COc1ccc2nc(SC(C)C(=O)c3ccc(NC(=O)C(C)(C)C)cc3)[nH]c2c1` (centres unmarked) [Z50965385] was above 1 mM; that for `COc1ccc2nc(SC(C)C(=O)Nc3ccc(C)cc3)[nH]c2c1` (centres unmarked) [Z16077036] was above 1 mM.

Take `CCn1c(SC(C)C(=O)c2ccc(NS(C)(=O)=O)cc2)nc2ccccc21` (centres unmarked) [Z50932618]: the IC50 is above 1 mM. The value for `COc1ccc2nc(SC(C)C(=O)c3ccc(OC)c(OC)c3)[nH]c2c1` (centres unmarked) [Z940567722] was above 1 mM. The value for `COc1ccc2nc(SC(C)C(=O)c3ccc4c(c3)CCC4)[nH]c2c1` (centres unmarked) [Z16076970] was above 1 mM; that for `CCn1c(SC(C)C(=O)c2c(F)cc(F)cc2F)nc2cc(S(=O)(=O)N3CCCCC3)ccc21` (centres unmarked) [Z5032180738] was above 1 mM; that for `CCc1ccc(C(=O)C(C)Sc2nc3ccc(OC)cc3[nH]2)cc1` (centres unmarked) [Z16077530] was above 1 mM.

Consider `Cc1ccc2[nH]c(SC(C)C(=O)c3ccc(OC(F)F)cc3)nc2c1` (centres unmarked) [Z18443016], for which the IC50 was above 1 mM. The value for `COc1ccc2nc(SCCC(=O)c3ccc(F)cc3)[nH]c2c1` [Z16077963] was above 1 mM; that for `CCC(Sc1nc2ccc(OC)cc2[nH]1)C(=O)c1ccc(Cl)cc1` (centres unmarked) [Z5032180785] was above 1 mM; that for `COc1ccc(C(=O)C(Sc2nc3ccccc3n2C)c2ccc(OC)cc2)cc1` (centres unmarked) [Z15478257] was above 1 mM. As for `Cc1ccc2[nH]c(SC(C)C(=O)c3ccc(F)cc3F)nc2c1` (centres unmarked) [Z167804418], the figure is above 1 mM; as for `CCn1c(SC(C)C(=O)c2c(F)cc(F)cc2F)nc2ccccc21` (centres unmarked) [Z1098345881], above 1 mM. For the molecule `CCOc1ccc(C(=O)C(C)Sc2nc3cc(S(N)(=O)=O)ccc3n2CC)cc1` (centres unmarked) [Z51419689], the IC50 was above 1 mM. The value for `CCn1c(SC(C)C(=O)c2ccc3c(c2)CCC3)nc2cc(S(N)(=O)=O)ccc21` (centres unmarked) [Z51418316] was above 1 mM; that for `CCOc1ccc2[nH]c(SCCC(=O)c3ccc(F)cc3)nc2c1` [Z19828508] was above 1 mM; that for `COc1ccc2nc(SC(C)C(=O)c3ccc4c(c3)CCN4C(C)=O)[nH]c2c1` (centres unmarked) [Z165591262] was above 1 mM.

On to `COc1ccc2nc(SC(C)C(=O)c3cccc(F)c3)[nH]c2c1` (centres unmarked) [Z5032180758], for which the IC50 is above 1 mM. Take `CCn1c(SC(C)C(=O)c2cccc(Cl)c2)nc2cc(S(N)(=O)=O)ccc21` (centres unmarked) [Z51418566]: the IC50 was above 1 mM.

Regarding `COc1ccc(C(=O)C(C)Sc2nc3ccc(OC)cc3[nH]2)c(OC)c1` (centres unmarked) [Z16077640], the IC50 was above 1 mM. The value for `CCn1c(SC(C)C(=O)c2ccc3c(c2)CCC3)nc2cc(S(=O)(=O)N3CCOCC3)ccc21` (centres unmarked) [Z16669629] was above 1 mM; that for `CC(Sc1nc2ccccc2n1C(C)C)C(=O)c1ccc(C(C)C)cc1C(C)C` (centres unmarked) [Z54156331] was above 1 mM. The value for `COc1ccc2nc(SC(C)C(=O)c3ccco3)[nH]c2c1` (centres unmarked) [Z3277796272] was above 1 mM; that for `COc1ccc(-n2c(SC(C)C(=O)c3cc(C)c(C)cc3C)nc3ccccc32)cc1` (centres unmarked) [Z19576531] was above 1 mM. The value for `CCC(Sc1nc2ccc(OC)cc2[nH]1)C(=O)c1ccc(OC)cc1` (centres unmarked) [Z5032180767] was above 1 mM; that for `CCn1c(SC(C)C(=O)c2ccc3c(c2)CCN3C(C)=O)nc2ccccc21` (centres unmarked) [Z165501154] was above 1 mM; that for `COc1ccc(C(=O)C(C)Sc2nc3ccc(OC)cc3[nH]2)cc1` (centres unmarked) [Z16077705] was above 1 mM. With `COc1ccc2nc(SC(C)C(=O)Nc3cc(F)ccc3F)[nH]c2c1` (centres unmarked) [Z112468620], the IC50 was above 1 mM. As to `CCc1ccc(C(=O)C(C)Sc2nc3cc(S(N)(=O)=O)ccc3n2CC)cc1` (centres unmarked) [Z51418852], the IC50 was above 1 mM. As for `COc1ccc2nc(SC(C)C(=O)N(C)C)[nH]c2c1` (centres unmarked) [Z92077129], the figure is above 1 mM; as for `COc1ccc(-n2c(SC(C)C(=O)c3c(F)cc(F)cc3F)nc3ccccc32)cc1` (centres unmarked) [Z5032180751], above 1 mM.

The values above are taken from article PMC12495443, “Developing inhibitors of the guanosine triphosphate hydrolysis accelerating activity of Regulator of G protein Signaling-14 [drawing 1]” (The Journal of Biological Chemistry, 2025).
